Source: patent US20090306116A1, “PYRIMIDINE DERIVATIVES FOR THE INHIBITION OF IGF-IR TYROSINE KINASE ACTIVITY” (AstraZeneca AB, priority 2005, published 2009)

Test system: murine fibroblasts (NIH3T3) over-expressing human IGF-1 receptor
Experiment: Inhibition of IGF-stimulated cell proliferation (BrdU incorporation), Test (c)
Type: cell-based
Settings: inhibition of IGF-stimulated proliferation in NIH3T3 over-expressing human IGF-1 receptor
Procedure: The construction of murine fibroblasts (NIH3T3) over-expressing human IGF-1 receptor has been described by Lammers et al (EMBO J, 8, 1369-1375, 1989). These cells show a proliferative response to IGF-I which can be measured by BrdU incorporation into newly synthesised DNA. Compound potency was determined as causing inhibition of the IGF-stimulated proliferation in the following assay:
Cell Proliferation ELISA, BrdU (calorimetric) [Boehringer Mannheim (Diagnostics and Biochemicals) Ltd, UK. Cat no. 1 647 229].
DMEM, FCS, Glutamine, HBSS (all from Life Technologies Ltd., UK).
Human recombinant IGF-1 Animal/media grade (GroPep Limited ABN 78 008 176 298, Australia. Cat No. IU 100).
100 μg of lyophilised IGF was reconstituted in 100 ul of 10 mM HCl. Add 400 μl of 1 mg/ml BSA in PBS 25 μl aliquots @ 200 μg/ml IGF-1
10 μl of stock IGF+12.5 ml growth medium to give 8× stock of 160 ng/ml.
DMEM, 10% FCS, 2 mM glutamine.
DMEM, 1% charcoal/dextran stripped FCS, 2 mM glutamine.
Compounds are initially dissolved in DMSO to 10 mM, followed by dilutions in DMEM+1% FCS+glutamine to give a range from […] in 1-0.00045% DMSO final concentration in assay well. […]
The incorporation of BrdU in the cells (after a 4 h incorporation period) was assessed using the BrdU Cell Proliferation Elisa according to the manufacturer's protocol. […]

SMILES | IC50 [µM]
Cc1cc(Nc2nccs2)nc(N2CCC[C@H]2c2cc(-c3ccccn3)no2)n1 [Example 1, S-6-Methyl-4-(2-thiazolylamino)-2-{2-[3-(pyrid-2-yl)isoxazol-5-yl]pyrrolidin-1-yl}pyrimidine] | 0.17
Cc1cc(Nc2ncc[nH]2)nc(N2CCC[C@H]2c2cc(-c3ccccn3)no2)n1 [Example 23, S-6-Methyl-4-(imidazol-2-ylamino)-2-{2-[3-(pyridin-2-yl)isoxazol-5-yl]pyrrolidin-1-yl}pyrimidine] | 0.45
